Assay [1] can be described thus: Binding affinity to beta-L-Galactose-OMe assessed as molar ratio of sugar to compound in aggregate at 2 umol at pH 6 by 1H NMR analysis in presence of 20 umol CaCl2.
A short description of assay [2]: Binding affinity to D-Mannose assessed as molar ratio of sugar to compound in aggregate at 2 umol at pH 6 incubated at 60 degC for 15 mins, room temperature for 1 hr, and 4 degC for 1 hr by co-precipitation method in presence of 100 umol CaCl2.
Assay [3] is described as follows: Binding affinity to alpha-D-Mannose-OMe assessed as molar ratio of sugar to compound in aggregate at 2 umol incubated at 60 degC for 15 mins, room temperature for 1 hr, and 4 degC for 1 hr by co-precipitation method in presence of 100 umol CaCl2.
Assay [4] can be described thus: Binding affinity to alpha-D-Glucose-OMe assessed as molar ratio of sugar to compound in aggregate at 2 umol at pH 6 by 1H NMR analysis in presence of 20 umol CaCl2.
A short description of assay [5]: Binding affinity to beta-L-Galactose-OMe assessed as molar ratio of sugar to compound in aggregate at 2 umol incubated at 60 degC for 15 mins, room temperature for 1 hr, and 4 degC for 1 hr by co-precipitation method in presence of 100 umol CaCl2.
Assay [6] is described as follows: Binding affinity to alpha-L-[…]-OMe assessed as molar ratio of sugar to compound in aggregate at 2 umol at pH 6 by 1H NMR analysis in presence of 20 umol CaCl2.
Assay [7] is described as follows: Binding affinity to alpha-L-[…]-OMe assessed as molar ratio of sugar to compound in aggregate at 2 umol incubated at 60 degC for 15 mins, room temperature for 1 hr, and 4 degC for 1 hr by co-precipitation method in presence of 100 umol CaCl2.
Assay [8] in a line: Binding affinity to beta-D-Mannose-OMe assessed as molar ratio of sugar to compound in aggregate at 2 umol at pH 6 by 1H NMR analysis in presence of 20 umol CaCl2.
Assay [9] is described as follows: Binding affinity to D-Glucose assessed as molar ratio of sugar to compound in aggregate at pH 4.5 by co-precipitation method in presence of Ca2+.
Assay [10] in a line: Binding affinity to D-Glucose assessed as molar ratio of sugar to compound in aggregate at 2 umol at pH 6 by 1H NMR analysis in presence of 20 umol CaCl2.
Assay [11] in a line: Binding affinity to alpha-D-Mannose-OMe assessed as molar ratio of sugar to compound in aggregate at 2 umol at pH 6 by 1H NMR analysis in presence of 20 umol CaCl2.
Assay [12] is described as follows: Binding affinity to alpha-L-Galactose-OMe assessed as molar ratio of sugar to compound in aggregate at 2 umol incubated at 60 degC for 15 mins, room temperature for 1 hr, and 4 degC for 1 hr by co-precipitation method in presence of 100 umol CaCl2.
Assay [13] is described as follows: Binding affinity to D-Mannose assessed as molar ratio of sugar to compound in aggregate at 2 umol at pH 6 by 1H NMR analysis in presence of 20 umol CaCl2.
The nature of assay [14]: Binding affinity to beta-L-[…]-OMe assessed as molar ratio of sugar to compound in aggregate at 2 umol incubated at 60 degC for 15 mins, room temperature for 1 hr, and 4 degC for 1 hr by co-precipitation method in presence of 100 umol CaCl2.
Assay [15] in a line: Binding affinity to L-Galactose assessed as molar ratio of sugar to compound in aggregate at 2 umol incubated at 60 degC for 15 mins, room temperature for 1 hr, and 4 degC for 1 hr by co-precipitation method in presence of 100 umol CaCl2.
Assay [16] can be described thus: Binding affinity to L-[…] assessed as molar ratio of sugar to compound in aggregate at 2 umol at pH 6 by 1H NMR analysis in presence of 20 umol CaCl2.
A short description of assay [17]: Binding affinity to D-Arabinose assessed as molar ratio of sugar to compound in aggregate at 2 umol at pH 6 by 1H NMR analysis in presence of 20 umol CaCl2.
Assay [18] is described as follows: Binding affinity to alpha-L-Galactose-OMe assessed as molar ratio of sugar to compound in aggregate at 2 umol at pH 6 by 1H NMR analysis in presence of 20 umol CaCl2.
Assay [19] in a line: Binding affinity to L-Galactose assessed as molar ratio of sugar to compound in aggregate at 2 umol at pH 6 by 1H NMR analysis in presence of 20 umol CaCl2.
The nature of assay [20]: Binding affinity to beta-L-[…]-OMe assessed as molar ratio of sugar to compound in aggregate at 2 umol at pH 6 by 1H NMR analysis in presence of 20 umol CaCl2.
Assay [21] in a line: Binding affinity to L-[…] assessed as molar ratio of sugar to compound in aggregate at 2 umol incubated at 60 degC for 15 mins, room temperature for 1 hr, and 4 degC for 1 hr by co-precipitation method in presence of 100 umol CaCl2.
Assay [22] can be described thus: Binding affinity to Alpha-D-Mannose-OMe assessed as molar ratio of sugar to compound in aggregate at pH 4.5 by co-precipitation method in presence of Ca2+.
Assay [23] can be described thus: Binding affinity to beta-D-Mannose-OMe assessed as molar ratio of sugar to compound in aggregate at 2 umol incubated at 60 degC for 15 mins, room temperature for 1 hr, and 4 degC for 1 hr by co-precipitation method in presence of 100 umol CaCl2.

Regarding `CN[C@@H]1[C@H](O[C@@H]2OC[C@@H](O)[C@H](O)[C@H]2O)[C@@H](O)[C@H](O[C@H]2c3cc(C)c(C(=O)N[C@H](C)C(=O)O)c(O)c3-c3c(cc4c(c3O)C(=O)c3cc(OC)cc(O)c3C4=O)[C@@H]2O)O[C@@H]1C`, the Activity was 0.6 molar ratio in assay [1]; 1.08 molar ratio in [2]; 1.11 molar ratio in [3]; < 0.1 molar ratio in assay [4]; < 0.1 molar ratio in assay [5]; 0.28 molar ratio in assay [6]. Further, the Activity in assay [7] was < 0.1 molar ratio; in assay [8], 1.15 molar ratio; in assay [9] it was 0.57 molar ratio; in assay [10], < 0.1 molar ratio; in [11], 1.13 molar ratio; in assay [12], < 0.1 molar ratio. For the same compound, the Activity is 1.07 molar ratio in [13]; < 0.1 molar ratio in [14]; < 0.1 molar ratio in assay [15]; < 0.1 molar ratio in [16]; 1.14 molar ratio in [17]; 0.32 molar ratio in assay [18]. The Activity is < 0.1 molar ratio in [19]; 0.52 molar ratio in assay [20]; < 0.1 molar ratio in [21]; 1.08 molar ratio in assay [22]; 1.08 molar ratio in assay [23].
